“Also recorded” adds a separate entry of the source.
test system: not listed separately; assay: Cellular viability assay on mononuclear cells; type: cell-based, human; conditions: human, mononuclear cells (MNCs) isolated from blood, read-out: cell viability (%) at 0.25 mM
Excerpt: (§1) All of the chemicals and solvents were obtained from Sigma-Aldrich and used directly without any purification. Mononuclear cells were isolated from the blood samples taken from healthy volunteers. Diclofenac acid was purchased from Alfa Aesar. Bruker Avance 400 and 500 MHz spectrometers were used to […] the ^1H and ^13C nuclear magnetic resonance (NMR) spectra, were captured with tetramethylsilane (TMS) serving as an internal reference. On a Finnegan MAT-311A mass spectrometer, high-resolution mass spectrometry using electron ionization (HRMS (EI)) data were recorded. Using the Stuart melting point apparatus, melting points in open capillaries were determined (SMP10). All reactions were monitored by using thin layer chromatography (TLC) plates that were pre-coated with silica gel 60F254.
(§2) Assay protocols for bioactivity were placed in electronic supplementary material.
(§3) Using mononuclear cells (MNCs) at a concentration of 0.25 mM as shown in the table 2, the per cent viability was calculated.

Structure (SMILES) | viability at 0.25 mM
COc1cc(/C=C/C(=O)CC(=O)/C=C/c2ccc(O)c(OC)c2)ccc1O [curcumin, reference compound] | 74 ± 2%
O=P1(N(CCCl)CCCl)NCCCO1 (stereo not shown) [cyclophosphamide, reference compound] | 56 ± 2%
O=c1c(O)c(-c2ccc(O)c(O)c2)oc2cc(O)cc(O)c12 [quercetin, reference compound] | 92 ± 1%

test system: mononuclear cells (MNCs); assay: Cellular viability assay on mononuclear cells; type: cell-based, human; conditions: not given
Excerpt: as §1, §2, §3

Structure (SMILES) | cell viability (%) at 0.25 mM
O=C(Cc1ccccc1Nc1c(Cl)cccc1Cl)NNC(=S)Nc1ccccc1F [4a] | 79 ± 2%
O=C(Cc1ccccc1Nc1c(Cl)cccc1Cl)NNC(=S)Nc1cccc(F)c1 [4b] | 82 ± 1%
O=C(Cc1ccccc1Nc1c(Cl)cccc1Cl)NNC(=S)Nc1ccc(F)cc1 [4c] | 62 ± 2%
O=C(Cc1ccccc1Nc1c(Cl)cccc1Cl)NNC(=S)Nc1cccc(Cl)c1Cl [4d] | 73 ± 1%
O=C(Cc1ccccc1Nc1c(Cl)cccc1Cl)NNC(=S)Nc1ccc(Cl)cc1Cl [4e] | 64 ± 2%
O=C(Cc1ccccc1Nc1c(Cl)cccc1Cl)NNC(=S)Nc1ccc(Cl)c(Cl)c1 [4f] | 64 ± 2%
Fc1ccccc1-n1c(S)nnc1Cc1ccccc1Nc1c(Cl)cccc1Cl [5a] | 97 ± 2%
Fc1cccc(-n2c(S)nnc2Cc2ccccc2Nc2c(Cl)cccc2Cl)c1 [5b] | 96 ± 2%
Fc1ccc(-n2c(S)nnc2Cc2ccccc2Nc2c(Cl)cccc2Cl)cc1 [5c] | 96 ± 2%
Sc1nnc(Cc2ccccc2Nc2c(Cl)cccc2Cl)n1-c1cccc(Cl)c1Cl [5d] | 96 ± 2%
Sc1nnc(Cc2ccccc2Nc2c(Cl)cccc2Cl)n1-c1ccc(Cl)cc1Cl [5e] | 94 ± 1%
Sc1nnc(Cc2ccccc2Nc2c(Cl)cccc2Cl)n1-c1ccc(Cl)c(Cl)c1 [5f] | 97 ± 2%
CCSc1nnc(Cc2ccccc2Nc2c(Cl)cccc2Cl)n1-c1ccc(F)cc1 [6a] | 88 ± 2%
CCSc1nnc(Cc2ccccc2Nc2c(Cl)cccc2Cl)n1-c1ccc(Cl)c(Cl)c1 [6b] | 98 ± 1%
CCCSc1nnc(Cc2ccccc2Nc2c(Cl)cccc2Cl)n1-c1ccc(F)cc1 [6c] | 85 ± 1%
CCCSc1nnc(Cc2ccccc2Nc2c(Cl)cccc2Cl)n1-c1ccc(Cl)c(Cl)c1 [6d] | 78 ± 2%
Fc1ccccc1Nc1nnc(Cc2ccccc2Nc2c(Cl)cccc2Cl)o1 [7a] | 76 ± 1%
Fc1cccc(Nc2nnc(Cc3ccccc3Nc3c(Cl)cccc3Cl)o2)c1 [7b] | 72 ± 1%
Fc1ccc(Nc2nnc(Cc3ccccc3Nc3c(Cl)cccc3Cl)o2)cc1 [7c] | 63 ± 1%
Clc1cccc(Nc2nnc(Cc3ccccc3Nc3c(Cl)cccc3Cl)o2)c1Cl [7d] | 62 ± 2%
Clc1ccc(Nc2nnc(Cc3ccccc3Nc3c(Cl)cccc3Cl)o2)c(Cl)c1 [7e] | 43 ± 1%
Clc1ccc(Nc2nnc(Cc3ccccc3Nc3c(Cl)cccc3Cl)o2)cc1Cl [7f] | 59 ± 2%
Fc1ccccc1Nc1nnc(Cc2ccccc2Nc2c(Cl)cccc2Cl)s1 [8a] | 86 ± 2%
Fc1cccc(Nc2nnc(Cc3ccccc3Nc3c(Cl)cccc3Cl)s2)c1 [8b] | 92 ± 2%
Fc1ccc(Nc2nnc(Cc3ccccc3Nc3c(Cl)cccc3Cl)s2)cc1 [8c] | 76 ± 1%
Clc1cccc(Nc2nnc(Cc3ccccc3Nc3c(Cl)cccc3Cl)s2)c1Cl [8d] | 98 ± 2%
Clc1ccc(Nc2nnc(Cc3ccccc3Nc3c(Cl)cccc3Cl)s2)c(Cl)c1 [8e] | 75 ± 1%
Clc1ccc(Nc2nnc(Cc3ccccc3Nc3c(Cl)cccc3Cl)s2)cc1Cl [8f] | 95 ± 2%

biological target: T1, soybean 15-LOX (Glycine max, UniProt P08170); assay: In vitro 15-lipoxygenase inhibition assay; type: biochemical; conditions: read-out: IC50 (µM) ± SEM 15-LOX
T1 sequence (P08170 1-839): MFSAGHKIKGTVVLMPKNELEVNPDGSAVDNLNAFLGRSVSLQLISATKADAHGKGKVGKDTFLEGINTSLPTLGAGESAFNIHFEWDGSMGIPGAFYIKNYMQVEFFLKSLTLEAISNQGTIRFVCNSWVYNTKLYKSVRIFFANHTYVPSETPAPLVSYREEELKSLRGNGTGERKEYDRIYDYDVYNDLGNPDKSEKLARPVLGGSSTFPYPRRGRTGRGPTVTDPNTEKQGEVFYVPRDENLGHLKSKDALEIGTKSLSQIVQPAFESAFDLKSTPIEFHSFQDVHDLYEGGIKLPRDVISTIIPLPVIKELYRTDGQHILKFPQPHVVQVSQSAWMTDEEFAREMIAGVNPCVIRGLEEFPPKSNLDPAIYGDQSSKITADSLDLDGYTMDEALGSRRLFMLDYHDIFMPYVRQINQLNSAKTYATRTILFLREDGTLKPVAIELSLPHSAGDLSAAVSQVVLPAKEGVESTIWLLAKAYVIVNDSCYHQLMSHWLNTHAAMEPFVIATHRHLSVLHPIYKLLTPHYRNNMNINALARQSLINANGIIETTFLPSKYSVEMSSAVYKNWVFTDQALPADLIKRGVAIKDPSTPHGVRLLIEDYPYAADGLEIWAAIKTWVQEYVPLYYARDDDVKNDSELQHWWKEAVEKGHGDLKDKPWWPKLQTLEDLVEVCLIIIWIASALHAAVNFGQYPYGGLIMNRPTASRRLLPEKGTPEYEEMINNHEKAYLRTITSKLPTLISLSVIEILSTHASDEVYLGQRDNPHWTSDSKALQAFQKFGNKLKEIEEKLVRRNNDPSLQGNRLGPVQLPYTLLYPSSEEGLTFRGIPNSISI
Excerpt: as §2

Structure (SMILES) | IC50
O=C(Cc1ccccc1Nc1c(Cl)cccc1Cl)NNC(=S)Nc1ccccc1F [4a] | 163 ± 1 µM
O=C(Cc1ccccc1Nc1c(Cl)cccc1Cl)NNC(=S)Nc1cccc(F)c1 [4b] | > 250 µM
O=C(Cc1ccccc1Nc1c(Cl)cccc1Cl)NNC(=S)Nc1ccc(F)cc1 [4c] | > 250 µM
O=C(Cc1ccccc1Nc1c(Cl)cccc1Cl)NNC(=S)Nc1cccc(Cl)c1Cl [4d] | 164 ± 1 µM
O=C(Cc1ccccc1Nc1c(Cl)cccc1Cl)NNC(=S)Nc1ccc(Cl)cc1Cl [4e] | 177 ± 1 µM
O=C(Cc1ccccc1Nc1c(Cl)cccc1Cl)NNC(=S)Nc1ccc(Cl)c(Cl)c1 [4f] | > 250 µM
Fc1ccccc1-n1c(S)nnc1Cc1ccccc1Nc1c(Cl)cccc1Cl [5a] | 14 ± 1 µM
Fc1cccc(-n2c(S)nnc2Cc2ccccc2Nc2c(Cl)cccc2Cl)c1 [5b] | 61 ± 1 µM
Fc1ccc(-n2c(S)nnc2Cc2ccccc2Nc2c(Cl)cccc2Cl)cc1 [5c] | > 250 µM
Sc1nnc(Cc2ccccc2Nc2c(Cl)cccc2Cl)n1-c1cccc(Cl)c1Cl [5d] | 141 ± 1 µM
Sc1nnc(Cc2ccccc2Nc2c(Cl)cccc2Cl)n1-c1ccc(Cl)cc1Cl [5e] | 93 ± 1 µM
Sc1nnc(Cc2ccccc2Nc2c(Cl)cccc2Cl)n1-c1ccc(Cl)c(Cl)c1 [5f] | 75 ± 1 µM
CCSc1nnc(Cc2ccccc2Nc2c(Cl)cccc2Cl)n1-c1ccc(F)cc1 [6a] | > 250 µM
CCSc1nnc(Cc2ccccc2Nc2c(Cl)cccc2Cl)n1-c1ccc(Cl)c(Cl)c1 [6b] | > 250 µM
CCCSc1nnc(Cc2ccccc2Nc2c(Cl)cccc2Cl)n1-c1ccc(F)cc1 [6c] | > 250 µM
CCCSc1nnc(Cc2ccccc2Nc2c(Cl)cccc2Cl)n1-c1ccc(Cl)c(Cl)c1 [6d] | > 250 µM
Fc1ccccc1Nc1nnc(Cc2ccccc2Nc2c(Cl)cccc2Cl)o1 [7a] | 98 ± 1 µM
Fc1cccc(Nc2nnc(Cc3ccccc3Nc3c(Cl)cccc3Cl)o2)c1 [7b] | 87 ± 1 µM
Fc1ccc(Nc2nnc(Cc3ccccc3Nc3c(Cl)cccc3Cl)o2)cc1 [7c] | 67 ± 1 µM
Clc1cccc(Nc2nnc(Cc3ccccc3Nc3c(Cl)cccc3Cl)o2)c1Cl [7d] | 165 ± 1 µM
Clc1ccc(Nc2nnc(Cc3ccccc3Nc3c(Cl)cccc3Cl)o2)c(Cl)c1 [7e] | 172 ± 1 µM
Clc1ccc(Nc2nnc(Cc3ccccc3Nc3c(Cl)cccc3Cl)o2)cc1Cl [7f] | 143 ± 1 µM
Fc1ccccc1Nc1nnc(Cc2ccccc2Nc2c(Cl)cccc2Cl)s1 [8a] | > 250 µM
Fc1cccc(Nc2nnc(Cc3ccccc3Nc3c(Cl)cccc3Cl)s2)c1 [8b] | 97 ± 1 µM
Fc1ccc(Nc2nnc(Cc3ccccc3Nc3c(Cl)cccc3Cl)s2)cc1 [8c] | 173 ± 1 µM
Clc1cccc(Nc2nnc(Cc3ccccc3Nc3c(Cl)cccc3Cl)s2)c1Cl [8d] | 132 ± 1 µM
Clc1ccc(Nc2nnc(Cc3ccccc3Nc3c(Cl)cccc3Cl)s2)c(Cl)c1 [8e] | > 250 µM
Clc1ccc(Nc2nnc(Cc3ccccc3Nc3c(Cl)cccc3Cl)s2)cc1Cl [8f] | 156 ± 1 µM
O=c1cc(-c2ccccc2)oc2cc(O)c(O)c(O)c12 [baicalein, reference compound] | 22 ± 1 µM

biological target: α-glucosidase (Saccharomyces cerevisiae, UniProt P53341); assay: In vitro α-glucosidase inhibition assay; type: biochemical; conditions: NA = not active
Excerpt: as §2
Synthesized diclofenac acid derivatives were screened for α-glucosidase inhibitory activity (table 2).

Sequence of α-glucosidase (P53341 whole entry): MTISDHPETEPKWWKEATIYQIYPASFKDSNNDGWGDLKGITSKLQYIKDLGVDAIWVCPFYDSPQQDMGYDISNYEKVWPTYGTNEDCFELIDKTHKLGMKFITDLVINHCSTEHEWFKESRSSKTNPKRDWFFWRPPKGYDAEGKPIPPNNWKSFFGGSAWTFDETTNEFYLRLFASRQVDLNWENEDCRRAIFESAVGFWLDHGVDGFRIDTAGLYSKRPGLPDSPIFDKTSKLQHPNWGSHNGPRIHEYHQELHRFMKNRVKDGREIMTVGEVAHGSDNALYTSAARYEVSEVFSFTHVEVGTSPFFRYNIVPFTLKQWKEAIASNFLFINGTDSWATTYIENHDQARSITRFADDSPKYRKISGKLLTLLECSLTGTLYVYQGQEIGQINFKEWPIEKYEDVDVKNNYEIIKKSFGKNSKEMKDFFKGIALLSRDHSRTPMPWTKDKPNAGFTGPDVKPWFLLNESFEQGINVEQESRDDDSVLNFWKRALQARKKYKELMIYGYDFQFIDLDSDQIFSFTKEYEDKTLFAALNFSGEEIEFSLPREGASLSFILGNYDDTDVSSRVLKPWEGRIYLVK

Structure (SMILES) | IC50 (µM) ± SEM α-glucosidase
Clc1ccc(Nc2nnc(Cc3ccccc3Nc3c(Cl)cccc3Cl)s2)c(Cl)c1 [8e] | inactive; also recorded: non-active

same assay, conditions: NA = not active, read-out: IC50 (µM) ± SEM α-glucosidase

Structure (SMILES) | IC50
O=C(Cc1ccccc1Nc1c(Cl)cccc1Cl)NNC(=S)Nc1ccccc1F [4a] | 53 ± 1 µM
O=C(Cc1ccccc1Nc1c(Cl)cccc1Cl)NNC(=S)Nc1cccc(F)c1 [4b] | 5 ± 1 µM
O=C(Cc1ccccc1Nc1c(Cl)cccc1Cl)NNC(=S)Nc1ccc(F)cc1 [4c] | 53 ± 1 µM
O=C(Cc1ccccc1Nc1c(Cl)cccc1Cl)NNC(=S)Nc1cccc(Cl)c1Cl [4d] | 28 ± 1 µM
O=C(Cc1ccccc1Nc1c(Cl)cccc1Cl)NNC(=S)Nc1ccc(Cl)cc1Cl [4e] | 87 ± 1 µM
O=C(Cc1ccccc1Nc1c(Cl)cccc1Cl)NNC(=S)Nc1ccc(Cl)c(Cl)c1 [4f] | 93 ± 1 µM
Fc1ccccc1-n1c(S)nnc1Cc1ccccc1Nc1c(Cl)cccc1Cl [5a] | 202 ± 1 µM
Fc1cccc(-n2c(S)nnc2Cc2ccccc2Nc2c(Cl)cccc2Cl)c1 [5b] | 308 ± 1 µM
Fc1ccc(-n2c(S)nnc2Cc2ccccc2Nc2c(Cl)cccc2Cl)cc1 [5c] | 170 ± 1 µM
Sc1nnc(Cc2ccccc2Nc2c(Cl)cccc2Cl)n1-c1cccc(Cl)c1Cl [5d] | 83 ± 1 µM
Sc1nnc(Cc2ccccc2Nc2c(Cl)cccc2Cl)n1-c1ccc(Cl)cc1Cl [5e] | 92 ± 1 µM
Sc1nnc(Cc2ccccc2Nc2c(Cl)cccc2Cl)n1-c1ccc(Cl)c(Cl)c1 [5f] | 247 ± 1 µM
CCSc1nnc(Cc2ccccc2Nc2c(Cl)cccc2Cl)n1-c1ccc(F)cc1 [6a] | 116 ± 1 µM
CCSc1nnc(Cc2ccccc2Nc2c(Cl)cccc2Cl)n1-c1ccc(Cl)c(Cl)c1 [6b] | 132 ± 1 µM
CCCSc1nnc(Cc2ccccc2Nc2c(Cl)cccc2Cl)n1-c1ccc(F)cc1 [6c] | 92 ± 1 µM
CCCSc1nnc(Cc2ccccc2Nc2c(Cl)cccc2Cl)n1-c1ccc(Cl)c(Cl)c1 [6d] | 90 ± 1 µM
Fc1ccccc1Nc1nnc(Cc2ccccc2Nc2c(Cl)cccc2Cl)o1 [7a] | 7 ± 1 µM
Fc1cccc(Nc2nnc(Cc3ccccc3Nc3c(Cl)cccc3Cl)o2)c1 [7b] | 3 ± 1 µM
Fc1ccc(Nc2nnc(Cc3ccccc3Nc3c(Cl)cccc3Cl)o2)cc1 [7c] | 85 ± 1 µM
Clc1cccc(Nc2nnc(Cc3ccccc3Nc3c(Cl)cccc3Cl)o2)c1Cl [7d] | 79 ± 1 µM
Clc1ccc(Nc2nnc(Cc3ccccc3Nc3c(Cl)cccc3Cl)o2)c(Cl)c1 [7e] | 61 ± 1 µM
Clc1ccc(Nc2nnc(Cc3ccccc3Nc3c(Cl)cccc3Cl)o2)cc1Cl [7f] | 91 ± 1 µM
Fc1ccccc1Nc1nnc(Cc2ccccc2Nc2c(Cl)cccc2Cl)s1 [8a] | 99 ± 1 µM
Fc1cccc(Nc2nnc(Cc3ccccc3Nc3c(Cl)cccc3Cl)s2)c1 [8b] | 11 ± 1 µM
Fc1ccc(Nc2nnc(Cc3ccccc3Nc3c(Cl)cccc3Cl)s2)cc1 [8c] | 55 ± 1 µM
Clc1cccc(Nc2nnc(Cc3ccccc3Nc3c(Cl)cccc3Cl)s2)c1Cl [8d] | 46 ± 1 µM
Clc1ccc(Nc2nnc(Cc3ccccc3Nc3c(Cl)cccc3Cl)s2)cc1Cl [8f] | 125 ± 1 µM

From article PMC11576109, “Synthesis and biological evaluation of diclofenac acid derivatives as potential lipoxygenase and α-glucosidase inhibitors” (Royal Society Open Science, 2024)
